Entries after “also recorded” stand apart in the source; their conditions may differ.
How the values were obtained:
HO-1 (rat spleen) = biological target: T1, HO-1 (rat spleen) (Rattus norvegicus, UniProt P06762); test: HO enzymatic activity, rat spleen microsomal fraction (CO formation from methemalbumin); assay type: biochemical; conditions: CO formation from methemalbumin, mean ± SD of replicate experiments, read-out: IC50 HO-1 (rat spleen/μM)
T1 construct: Spleen microsomes were used as a source of HO-1; from tissue; host or cells: spleen microsomal fraction of adult male Sprague-Dawley rats
T1 sequence (P06762 1-289): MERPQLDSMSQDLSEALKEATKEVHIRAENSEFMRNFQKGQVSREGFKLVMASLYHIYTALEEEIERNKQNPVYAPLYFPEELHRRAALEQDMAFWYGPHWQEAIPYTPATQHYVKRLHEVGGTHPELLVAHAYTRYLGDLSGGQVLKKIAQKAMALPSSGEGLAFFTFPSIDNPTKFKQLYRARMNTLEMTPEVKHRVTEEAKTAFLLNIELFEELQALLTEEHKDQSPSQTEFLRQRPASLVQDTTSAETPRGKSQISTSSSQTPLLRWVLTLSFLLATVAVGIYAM

[1] = test system: human pancreatic tumor cells; test: Cell proliferation assay ([3H] thymidine incorporation), pancreatic tumor cells; assay type: cell-based; conditions: 6.5 μM, 18 h
[2] = Toxicity / tolerability of QC-56 in SCID mice (pilot study); assay type: in vivo
Text: IV.I (iii) Bioassay Species and strain: Mouse (Mus musculus); SCID, male Age at dosing initiation: 8 weeks old.
Once tumors became palpable, mice were randomized into experimental groups and the treatment was initiated.

[3] = test system: SKMEL-V human melanoma cells; test: Human melanoma model SKMEL-V+ in SCID mice (pilot study), tumor growth; assay type: in vivo, Mouse (Mus musculus); SCID
Text: Human melanoma cells (“SKMEL-V cells”) were derived from SKMEL-24 cells (ATCC) by over expression of mouse VEGF.
Only those cells with >95% viability were used for in-viva studies.
Once tumors reached a size of approximately 0.7 cm^3, they were removed under sterile condition, sliced into small pieces under a stereo-microscope. Each tissue piece was then re-inoculated subcutaneously. Only pieces of approximately the same size and with no signs of necrosis were used.
All data in this study are presented as mean±SE. Statistical analyses were performed by one-way ANOVA followed by Newman-Keuls post-hoc comparisons to assess significant main effects within groups. Statistical significance was set at p<0.05.

[4] = test system: CD31-positive vessels in SKMEL-V+ tumors; test: CD31 immunohistochemistry / microvessel density of SKMEL-V+ tumors; assay type: in vivo, Mouse (Mus musculus), male SCID; conditions: QC-56 particularly at 60 mg/kg, hydrochloride, 60 mg/kg
Protocol: Cell cultures were maintained in 5% CO2/95% air at 37° C. SKMEL-V (human melanoma cells). SKMEL-V cells were derived from SKMEL-24 cells (ATCC) by overexpression of mouse VEGF. […] Tumors were either snap frozen in liquid nitrogen or fixed in 10% buffered formalin and embedded in paraffin. […] BD PharMingen, San Diego, Calif.). […] Sections were rehydrated in PBS and then blocked with 5% normal goat serum for 1 h. The sections were then incubated overnight at 4° C. with CD31 antibody diluted 1:25 in 3% BSA-PBS. […] Paraffin-embedded material was used for Harris' hematoxylin. Microvessel density was quantified using a method described by Weidner et al ([…], and Folkman […]. Med, 1991; 324:1-8). Briefly, randomly vascularized areas were selected (hot spots) under 40× field and 100× fields. Then a 400× field was used to count microvessels in each of these areas. Single endothelial cells or clusters of endothelial cells with or without lumen were considered to be individual vessels. […] All slides were examined blindly with no prior knowledge of the treatment status.

## Cl.FC[C@@H]1CO[C@@](CCc2ccc(Cl)cc2)(Cn2ccnc2)O1 [QC-47, (2R,4S)-1-{2-[2-(4-Chlorophenyl)ethyl]-4-fluoromethyl-[1,3]dioxolan-2-ylmethyl}-1H-imidazole hydrochloride]
HO-1 (rat spleen)
  IC50: 6 ± 3 µM

## Brc1ccc(CCC2(Cn3ccnc3)OCCO2)cc1.Cl [QC-56, 1-((2-(2-(4-Bromophenyl)ethyl)-1,3-dioxolan-2-yl)methyl)-1H-imidazole hydrochloride]
[1]; compared to untreated cells, hydrochloride
  3H-thymidine incorporation, non-transfected cells: significantly attenuated ^3H-thymidine incorporation; also recorded: marked reduction in the rate of cellular proliferation
[1]; hHO-1 transfected human pancreatic tumor cells
  3H-thymidine incorporation, hHO-1 transfected cells: significantly attenuated the effects of hHO-1 transfection on ^3H-thymidine incorporation
[2]; 50 mg/kg
  tolerability after multiple administrations: well tolerated
[2]; 30 and 60 mg/kg, intraperitoneal, hydrochloride
  tolerability at repeated doses: well tolerated at repeated doses of 30 and 60 mg/kg with minor changes in body weights with no apparent toxicity; also recorded: well tolerated
[2]; intraperitoneally, single dose
  toxic single dose: ≥ 100 mg/kg
[3]; 30 mg/kg (P<0.03)
  tumor volume compared with vehicle alone: statistically significantly smaller
[3]; 60 mg/kg (P<0.02)
  tumor volume compared with vehicle alone: statistically significantly smaller
[4]
  vessel count / tumor vascularization (CD31): significant decrease in the size and number of blood vessels
